Data reported in patent US10787450B2 (BRISTOL-MYERS SQUIBB COMPANY, priority 2016, dated 2020).

target: ROCK2 (Homo sapiens (Human), UniProt O75116); experiment: ROCK2 kinase inhibition assay (FITC peptide substrate, LABCHIP 3000 Reader); type: biochemical; conditions: 5 μM ATP, 1.5 μM peptide substrate
How it was run: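 Reaction in 20 mM HEPES pH 7.5, 20 mM MgCl2, 0.015% Brij-35, 4 mM DTT with 5 μM ATP and 1.5 μM FITC-AHA-AKRRRLSSLRA-OH peptide, started with Rho kinase, DMSO <2%. EDTA-stopped; phospho and non-phospho peptide separated by mobility shift. IC50 from dose-response curve fit.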

Sequence of ROCK2 (O75116 whole entry, species assumed): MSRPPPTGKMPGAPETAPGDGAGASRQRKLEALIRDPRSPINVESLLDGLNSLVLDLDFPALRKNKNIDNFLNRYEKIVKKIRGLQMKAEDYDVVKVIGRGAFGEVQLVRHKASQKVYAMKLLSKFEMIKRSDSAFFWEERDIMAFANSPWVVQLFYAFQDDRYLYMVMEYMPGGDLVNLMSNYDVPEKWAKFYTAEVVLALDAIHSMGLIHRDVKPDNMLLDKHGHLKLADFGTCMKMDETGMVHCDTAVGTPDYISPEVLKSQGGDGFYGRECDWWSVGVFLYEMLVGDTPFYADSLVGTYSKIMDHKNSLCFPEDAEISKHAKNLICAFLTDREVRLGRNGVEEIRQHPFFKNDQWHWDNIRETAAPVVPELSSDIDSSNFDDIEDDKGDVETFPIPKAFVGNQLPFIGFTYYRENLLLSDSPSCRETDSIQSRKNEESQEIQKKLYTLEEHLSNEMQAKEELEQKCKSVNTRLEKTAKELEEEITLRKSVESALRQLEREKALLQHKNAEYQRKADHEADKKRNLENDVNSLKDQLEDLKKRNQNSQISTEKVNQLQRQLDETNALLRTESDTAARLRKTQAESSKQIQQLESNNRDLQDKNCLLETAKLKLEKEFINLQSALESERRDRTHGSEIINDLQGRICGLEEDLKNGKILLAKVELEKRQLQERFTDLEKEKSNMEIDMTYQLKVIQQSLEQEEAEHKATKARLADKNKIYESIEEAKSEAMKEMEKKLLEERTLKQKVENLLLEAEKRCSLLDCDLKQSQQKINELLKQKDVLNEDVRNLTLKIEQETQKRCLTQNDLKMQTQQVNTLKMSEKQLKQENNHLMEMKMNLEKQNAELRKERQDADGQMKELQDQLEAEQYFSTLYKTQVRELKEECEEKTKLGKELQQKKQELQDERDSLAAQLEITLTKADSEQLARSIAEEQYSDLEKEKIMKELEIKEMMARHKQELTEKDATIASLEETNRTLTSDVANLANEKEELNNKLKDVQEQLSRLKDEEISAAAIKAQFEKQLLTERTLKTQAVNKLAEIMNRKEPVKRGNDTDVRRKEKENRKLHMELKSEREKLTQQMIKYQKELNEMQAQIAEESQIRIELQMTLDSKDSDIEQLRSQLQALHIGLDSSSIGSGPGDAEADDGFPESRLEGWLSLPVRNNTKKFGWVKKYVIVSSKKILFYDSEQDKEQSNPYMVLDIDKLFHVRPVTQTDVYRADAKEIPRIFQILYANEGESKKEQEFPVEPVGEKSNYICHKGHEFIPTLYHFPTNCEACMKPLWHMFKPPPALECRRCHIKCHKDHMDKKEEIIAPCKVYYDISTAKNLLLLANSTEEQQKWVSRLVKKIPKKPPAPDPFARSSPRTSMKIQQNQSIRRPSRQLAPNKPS

SMILES	IC50
COc1cc(F)cc(CN2C(=O)N(c3ccc(-c4cn[nH]c4)cc3)CC23CCOCC3)c1 [Example 10, 3-(4-(1H-pyrazol-4-yl)phenyl)-1-(3-fluoro-5-methoxybenzyl)-8-oxa-1,3-diazaspiro[4.5]decan-2-one]	< 3 nM
CNC(=O)CN1CCC2(CC1)CN(c1ccc(-c3cn[nH]c3)cc1)C(=O)N2Cc1cccc(OC)c1 [Example 168, 2-(3-(4-(1H-pyrazol-4-yl)phenyl)-1-(3-methoxybenzyl)-2-oxo-1,3,8-triazaspiro[4.5]decan-8-yl)-N-methylacetamide]	< 3 nM
O=C1N(c2ccc(-c3cn[nH]c3)cc2)CC2(CCOCC2)N1Cc1c(F)cccc1F [Example 23, 3-(4-(1H-pyrazolo-4-yl)phenyl)-1-(2,6-difluorobenzyl)-8-oxa-1,3-diazaspiro[4.5]decan-2-one]	250 to 3000 nM
COc1cccc(CN2C(=O)N(c3ccc(-c4cn[nH]c4)cc3)CC23CC3)c1 [Example 1, 6-(4-(1H-pyrazol-4-yl)phenyl)-4-(3-methoxybenzyl)-4,6-diazaspiro[2.4]heptan-5-one]	< 3 nM
CCc1nc(N2CC3(CCN(CC(C)O)CC3)N(Cc3cccc(OC)c3)C2=O)ccc1-c1cn[nH]c1 (centres unmarked) [Example 151, 3-(6-ethyl-5-(1H-pyrazol-4-yl)pyridin-2-yl)-8-(2-hydroxypropyl)-1-(3-methoxybenzyl)-1,3,8-triazaspiro[4.5]decan-2-one]	< 3 nM
COc1cccc(NC2C(=O)N(c3ccc(-c4cn[nH]c4)cn3)CC23CCN(C(=O)CCN2CCCC2=O)CC3)c1 (centres unmarked) [Example 259, 2-(5-(1H-pyrazol-4-yl)pyridin-2-yl)-4-((3-methoxy-phenyl)amino)-8-(3-(2-oxo-pyrrolidin-1-yl)pro-panoyl)-2,8-diazaspiro [4.5]decan-3-one]	250 to 3000 nM
COc1cccc(CN2C(=O)N(c3ccc(-c4cn[nH]c4)cc3)CC23CCNCC3)c1 [Example 57, 3-(4-(1H-pyrazol-4-yl)phenyl)-1-(3-methoxybenzyl)-1,3,8-triazaspiro[4.5]decan-2-one]	< 3 nM
COc1cccc(NC2C(=O)N(c3ccc(-c4cn[nH]c4)cc3)CC23CN(CC(F)F)C3)c1 (centres unmarked) [Example 247, 6-(4-(1H-pyrazol-4-yl)phenyl)-2-(2,2-difluoroethyl)-8-((3-methoxy-phenyl)amino)-2,6-diazaspiro [3.4]octan-7-one]	250 to 3000 nM
COc1cccc(CN2C(=O)N(c3ccc(-c4cn[nH]c4)cc3)CC23CCN(S(C)(=O)=O)CC3)c1 [Example 234, 3-(4-(1H-pyrazol-4-yl)phenyl)-1-(3-methoxybenzyl)-8-(methylsulfonyl)-1,3,8-triazaspiro[4.5]decan-2-one]	< 3 nM
O=C1N(c2ccc(-c3cn[nH]c3)cc2)CC2(CCNCC2)N1Cc1cccc(O)c1 [Example 62, 3-(4-(1H-pyrazol-4-yl)phenyl)-1-(3-hydroxybenzyl)-1,3,8-triazaspiro[4.5]decan-2-one]	< 3 nM
CC1(NC(=O)c2cccc(CN3C(=O)N(c4ccc(-c5cn[nH]c5)cc4)CC34CCOCC4)c2)CC1 [Example 39, 3-((3-(4-(1H-pyrazol-4-yl)phenyl)-2-oxo-8-oxa-1,3-diazaspiro[4.5]decan-1-yl)methyl)-N-(1-methylcyclopropyl)benzamide]	3 to 30 nM
COc1cccc(CN2C(=O)N(c3ccc(-c4cn[nH]c4)cc3)CC23CCN(CC(C)O)CC3)c1 (single isomer, unassigned) [Example 140, 3-(4-(1H-pyrazol-4-yl)phenyl)-8-(2-hydroxypropyl)-1-(3-methoxybenzyl)-1,3,8-triazaspiro[4.5]decan-2-one]	< 3 nM
COC(=O)N1CCC2(CC1)CN(c1ccc(-c3cn[nH]c3)cc1)C(=O)N2Cc1cccc(OC)c1 [Example 94, Methyl 3-(4-(1H-pyrazol-4-yl)phenyl)-1-(3-methoxybenzyl)-2-oxo-1,3,8-triazaspiro[4.5]decane-8-carboxylate]	< 3 nM
Cc1c(F)cccc1CN1C(=O)N(c2ccc(-c3cn[nH]c3)cc2)CC12CCOCC2 [Example 25, 3-(4-(1H-pyrazol-4-yl)phenyl)-1-(3-fluoro-2-methylbenzyl)-8-oxa-1,3-diazaspiro[4.5]decan-2-one]	< 3 nM
CN(C(=O)c1cccc(CN2C(=O)N(c3ccc(-c4cn[nH]c4)cc3)CC23CCOCC3)c1)C1CC1 [Example 45, 3-((3-(4-(1H-pyrazol-4-yl)phenyl)-2-oxo-8-oxa-1,3-diazaspiro[4.5]decan-1-yl)methyl)-N-cyclopropyl-N-methylbenzamide]	< 3 nM
COc1cccc(CN2C(=O)N(c3ccc(-c4cn[nH]c4)cn3)CC23CCN(CC(C)(C)O)CC3)c1 [Example 161, 3-(5-(1H-pyrazol-4-yl)pyridin-2-yl)-8-(2-hydroxy-2-methylpropyl)-1-(3-methoxybenzyl)-1,3,8-triazaspiro[4.5]decan-2-one]	< 3 nM

SMILES	IC50
COc1nc(N2CC3(CCN(CC(C)(C)O)CC3)N(Cc3cccc(F)c3C)C2=O)ccc1-c1cn[nH]c1 [Example 167, 1-(3-fluoro-2-methylbenzyl)-8-(2-hydroxy-2-methylpropyl)-3-(6-methoxy-5-(1H-pyrazol-4-yl)pyridin-2-yl)-1,3,8-triazaspiro[4.5]decan-2-one]	< 3 nM
COc1cc(F)cc(CN2C(=O)N(c3ccc(-c4cn[nH]c4)cc3)CC23CCN(C(=O)C2(C)COC2)CC3)c1 [Example 193, 33-(4-(1H-pyrazol-4-yl)phenyl)-1-(3-fluoro-5-methoxybenzyl)-8-(3-methyloxetane-3-carbonyl)-1,3,8-triazaspiro[4.5]decan-2-one]	< 3 nM
COc1cccc(CN2C(=O)N(c3ccc(-c4cn[nH]c4)c(OC)n3)CC23CCN(C(C)=O)CC3)c1 [Example 85, 8-acetyl-3-(6-methoxy-5-(1H-pyrazol-4-yl)pyridin-2-yl)-1-(3-methoxybenzyl)-1,3,8-triazaspiro[4.5]decan-2-one]	< 3 nM
CCc1nc(N2CC3(CCN(C(=O)C4(O)CC4)CC3)N(Cc3cccc(OC)c3)C2=O)ccc1-c1cn[nH]c1 [Example 216, 3-(6-ethyl-5-(1H-pyrazol-4-yl)pyridin-2-y)-8-(1-hydroxycyclopropanecarbonyl)-1-(3-methoxybenzyl)-1,3,8-triazaspiro[4.5]decan-2-one]	3 to 30 nM
COc1cccc(CN2C(=O)N(c3ncc(-c4cn[nH]c4)c(OC)n3)CC23CCN(C(=O)[C@@H]2CC2(F)F)CC3)c1 [Example 213, (S)-8-(2,2-difluorocyclopropane-carbonyl)-3-(4-methoxy-5-(1H-pyrazol-4-yl)pyrimidin-2-yl)-1-(3-methoxybenzyl)-1,3,8-triazaspiro[4.5]decan-2-one]	3 to 30 nM
COc1cccc(NC2C(=O)N(c3ccc(-c4cn[nH]c4)cn3)CC23CCN(C(=O)CCn2cc(C)c4ccccc42)CC3)c1 (centres unmarked) [Example 256, 2-(5-(1H-pyrazol-4-yl)pyridin-2-yl)-4-((3-methoxy-phenyl)amino)-8-(3-(3-methyl-1H-indol-1-yl)propanoyl)-2,8-diazaspiro [4.5]decan-3-one]	30 to 250 nM
COc1cccc(CN2C(=O)N(c3ccc(-c4cn[nH]c4)cc3)CC23CCN(C(=O)C2CCCC2)CC3)c1 [Example 174, 3-(4-(1H-pyrazol-4-yl)phenyl)-8-(cyclopentanecarbonyl)-1-(3-methoxybenzyl)-1,3,8-triazaspiro[4.5]decan-2-one]	< 3 nM
O=C(NC1CCC1)c1cccc(CN2C(=O)N(c3ccc(-c4cn[nH]c4)cc3)CC23CCOCC3)c1 [Example 33, 3-((3-(4-(1H-pyrazol-4-yl)phenyl)-2-oxo-8-oxa-1,3-diazaspiro[4.5]decan-1-yl)methyl)-N-cyclobutylbenzamide]	< 3 nM
COc1cccc(C(C)N2C(=O)N(c3ccc(-c4cn[nH]c4)cc3)CC23CC3)c1 (single isomer, unassigned) [Example 2, 6-(4-(1H-pyrazol-4-yl)phenyl)-4-(1-(3-methoxyphenyl)ethyl)-4,6-diazaspiro[2.4]heptan-5-one]	3 to 30 nM
CCc1nc(N2CC3(CCN(CCO)CC3)N(Cc3cccc(F)c3C)C2=O)ccc1-c1cn[nH]c1 [Example 149, 3-(6-ethyl-5-(1H-pyrazol-4-yl)pyridin-2-yl)-1-(3-fluoro-2-methylbenzyl)-8-(2-hydroxyethyl)-1,3,8-triazaspiro[4.5]decan-2-one]	< 3 nM
Cc1cc(F)ccc1CN1C(=O)N(c2ccc(-c3cn[nH]c3)cc2)CC12CCOCC2 [Example 26, 3-(4-(1H-pyrazol-4-yl)phenyl)-1-(4-fluoro-2-methylbenzyl)-8-oxa-1,3-diazaspiro[4.5]decan-2-one]	30 to 250 nM
COc1cccc(NC2C(=O)N(c3ccc(-c4cn[nH]c4)cc3)CC23CCN(CCO)CC3)c1 (centres unmarked) [Example 252, 2-(4-(1H-pyrazol-4-yl)phenyl)-8-(2-hydroxy-ethyl)-4-((3-methoxy-phenyl)amino)-2,8-diazaspiro [4.5]decan-3-one]	250 to 3000 nM
CCc1nc(N2CC3(CCN(CC(F)F)CC3)N(Cc3cc(F)cc(OC)c3)C2=O)ccc1-c1cn[nH]c1 [Example 129, 8-(2,2-difluoroethyl)-3-(6-ethyl-5-(1H-pyrazol-4-yl)pyridin-2-yl)-1-(3-fluoro-5-methoxybenzyl)-1,3,8-triazaspiro[4.5]decan-2-one]	3 to 30 nM
COc1cccc(CN2C(=O)N(c3ccc(-c4cn[nH]c4)c(OC)n3)CC23CCN(CC(C)O)CC3)c1 (centres unmarked) [Example 147, 8-(2-hydroxypropyl)-3-(6-methoxy-5-(1H-pyrazol-4-yl)pyridin-2-yl)-1-(3-methoxybenzyl)-1,3,8-triazaspiro[4.5]decan-2-one]	< 3 nM
COc1cccc(CN2C(=O)N(c3ccc(-c4cn[nH]c4)c(OC)n3)CC23CCN(C(=O)CN(C)C)CC3)c1 [Example 218, 8-(2-(dimethylamino)acetyl)-3-(6-methoxy-5-(1H-pyrazol-4-yl)pyridin-2-yl)-1-(3-methoxybenzyl)-1,3,8-triazaspiro[4.5]decan-2-one]	< 3 nM
Cc1c(F)cccc1CN1C(=O)N(c2ccc(-c3cn[nH]c3)cc2)CC12CCN(C(=O)OC(C)(C)C)CC2 [Example 49, tert-butyl 3-(4-(1H-pyrazol-4-yl)phenyl)-1-(3-fluoro-2-methylbenzyl)-2-oxo-1,3,8-triazaspiro[4.5]decane-8-carboxylate]	3 to 30 nM
